{"source": "patent US8865208B2", "about": "“Vesicle useful for external preparation for skin, and external preparation for skin comprising the vesicle” (Pola Chemical Industries Inc., priority 2007, dated 2014)", "system": "skin", "assay": "Test Example 1: transepidermal water loss (TEWL) of skin pretreated with sodium lauryl sulfate, Tewameter", "assay_type": "in vivo", "conditions": "conclusion drawn from Table 3", "protocol": "Vesicle dispersion liquid 1, Vesicle dispersion liquid 2, Comparative Example 4, Comparative Example 5, and Comparative Example 6 were each used as a sample. The skin was previously applied and blocked with 1% sodium lauryl sulfate aqueous solution for 24 hours to enhance transepidermal water loss (TEWL), and was applied and blocked with the sample for 6 hours, and 30 minutes after removing a bandage, TEWL was determined using Tewameter (manufactured by Integral Corporation). It should be noted that water was applied as a control. […] This is inferably because the dermis-reaching property of Palmaria extract 1, which is an active ingredient, has been enhanced owing to the vesicle.", "data": [{"molecule": "CCCCCCCCCCCC(=O)N[C@@H](CCC(=O)NCCCC[C@H](NC(=O)CC[C@H](NC(=O)CCCCCCCCCCC)C(=O)O)C(=O)O)C(=O)O", "note": "[Pellicer L-30, α,ε-bis (γ-N-lauroylglutamyl)lysine]", "values": [{"measurement": "TEWL-suppressing effect (in words)", "result": "had a function of suppressing TEWL"}]}]}
